A word on the IC50: it is the concentration at which inhibition is half-maximal.

The test system of the first test is Aβ1-42 production. The test is described as follows: Cellular assay for inhibition of Aβ1-42 production (H4 APP751 SWE clone 8.20). The conditions noted are these: 19 h, H4 APP751 SWE clone 8.20 cells, 19 h incubation; class symbols; read-out: Activity Rating (Aβ42 cellular IC50). Type of test: cell-based. The procedure, abridged:
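Secreted peptide was quantified with a two-antibody homogeneous format combining Wallac-labelled 565, which recognises the Aβ42 end, and APC-labelled 26D6 at 0.8 and 75 ng/well respectively. Antibodies were diluted in 40 mM Tris-HCl, pH 7.4, 0.2% BSA and left overnight at 4 °C after a 19 h compound incubation.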
Turning to `CNc1nc(Nc2ccc(-n3cnc(Cl)n3)c(OC)c2)nc2c1CCC2c1cc(F)c(F)c(F)c1` (centres unmarked) [Example 106, N^2-(4-(3-chloro-1H-1,2,4-triazol-1-yl)-3-methoxyphenyl)-N^4-methyl-7-(3,4,5-trifluorophenyl)-6,7-dihydro-5H-cyclopenta[d]pyrimidine-2,4-diamine], the IC50 lay in the range of 0.01 to 0.1 µM. On to `CNc1nc(Nc2ccc(-n3cnc(C)n3)c(OC)c2)nc2c1CCC2c1ccccc1` (centres unmarked) [Example 1, N2-(3-methoxy-4-(3-methyl-1H-1,2,4-triazol-1-yl)phenyl)-N4-methyl-7-phenyl-6,7-dihydro-5H-cyclopenta[d]pyrimidine-2,4-diamine], for which the IC50 lay in the range of 0.0015 to 0.0099 µM. The same measure, in the same setting: then `COc1cc(Nc2nc3c(c(N(C)C)n2)CCC3c2ccc(F)c(F)c2)ccc1-n1cnc(Cl)c1` (racemic) [Example 95, N^2-(4-(4-Chloro-1H-imidazol-1-yl)-3-methoxyphenyl)-7-(3,4-difluorophenyl)-N^4,N^4-dimethyl-6,7-dihydro-5H-cyclopenta[d]pyrimidine-2,4-diamine], with 0.0015 to 0.0099 µM; and `CNc1nc(Nc2ccc(-n3cnc(C)n3)c(OC)c2)nc2c1CC[C@H]2c1ccccc1OC` (single isomer, unassigned) [Example 266A], with 0.01 to 0.1 µM.

The same test, now with this note: 19 h, H4 APP751 SWE clone 8.20 cells, 19 h incubation; read-out: Activity Rating (Aβ42 cellular IC50), numeric value.
For the compound `CNc1nc(Nc2ccc(-n3cnc(Cl)c3)c(OC)c2)nc2c1COC2c1ccc(F)cc1` (single isomer, unassigned) [Example 79A, N^2-(4-(4-chloro-1H-imidazol-1-yl)-3-methoxyphenyl)-7-(4-fluorophenyl)-N^4-methyl-5,7-dihydrofuro[3,4-d]pyrimidine-2,4-diamine], the IC50 was 0.0058 µM. Same read-out and setting: then `COc1cc(Nc2nc3c(c(N4CC(F)(F)C4)n2)CCC3c2ccc(OC(F)(F)F)cc2)ccc1-n1cnc(Cl)c1` (racemic) [Example 99, N-(4-(4-Chloro-1H-imidazol-1-yl)-3-methoxyphenyl)-4-(3,3-difluoroazetidin-1-yl)-7-(4-(trifluoromethoxy)phenyl)-6,7-dihydro-5H-cyclopenta[d]pyrimidin-2-amine], with 0.019 µM; and `CNc1nc(Nc2ccc(-n3cnc(Cl)c3)c(OC)c2)nc2c1COCC2c1ccccc1` (centres unmarked) [Example 51, N^2-(4-(4-chloro-1H-imidazol-1-yl)-3-methoxyphenyl)-N^4-methyl-8-phenyl-7,8-dihydro-5H-pyrano[4,3-d]pyrimidine-2,4-diamine], with 0.0045 µM. On to `CNc1nc(Nc2ccc(-c3cccnc3)c(OC)c2)nc2c1CCC2c1ccccc1` (centres unmarked) [Example 263, N2-(3-methoxy-4-(pyridin-3-yl)phenyl)-N4-methyl-7-phenyl-6,7-dihydro-5H-cyclopenta[d]pyrimidine-2,4-diamine], for which the IC50 came to 0.032 µM.

The same test, now with this note: H4 APP751 SWE clone 8.20 cells, 19 h incubation; class symbols; read-out: Activity Rating (Aβ42 cellular IC50).
Regarding `COc1cc(Nc2nc3c(c(N4CC=C(F)CC4)n2)CCC3c2ccc(F)cc2)ccc1-n1cnc(Cl)c1` (centres unmarked) [Example 40B, N-(4-(4-chloro-1H-imidazol-1-yl)-3-methoxyphenyl)-4-(4-fluoro-5,6-dihydropyridin-1(2H)-yl)-7-(4-fluorophenyl)-6,7-dihydro-5H-cyclopenta[d]pyrimidin-2-amine], the IC50 lay within 0.1 to 1 µM. Take `COc1cc(Nc2nc3c(c(N4CC(F)(F)C4)n2)COCC3c2ccc(Cl)cc2)ccc1-n1cnc(Cl)c1` (single isomer, unassigned) [Example 66A, N-(4-(4-chloro-1H-imidazol-1-yl)-3-methoxyphenyl)-8-(4-chlorophenyl)-4-(3,3-difluoroazetidin-1-yl)-7,8-dihydro-5H-pyrano[4,3-d]pyrimidin-2-amine]: the IC50 lay in the range of 0.1 to 1 µM. Turning to `COc1cc(Nc2nc3c(c(N(C)C)n2)CCC3c2ccc(F)cc2)ccc1-n1cnc(Cl)c1` (single isomer, unassigned) [Example 46B, N^2-(4-(4-chloro-1H-imidazol-1-yl)-3-methoxyphenyl)-7-(4-fluorophenyl)-N^4,N^4-dimethyl-6,7-dihydro-5H-cyclopenta[d]pyrimidine-2,4-diamine], the IC50 was in the range of 0.01 to 0.1 µM. In the case of `COc1cc(Nc2nc3c(c(N4CC(C)(O)C4)n2)CCC3c2ccc(F)cc2)ccc1-n1cnc(Cl)c1` (centres unmarked) [Example 189B, 1-(2-(4-(4-chloro-1H-imidazol-1-yl)-3-methoxyphenylamino)-7-(4-fluorophenyl)-6,7-dihydro-5H-cyclopenta[d]pyrimidin-4-yl)-3-methylazetidin-3-ol], the half-maximal inhibitory concentration (IC50) was 0.01 to 0.1 µM. As to `CCNc1nc(Nc2ccc(-n3cnc(Cl)c3)c(OC)c2)nc2c1COCC2c1ccc(F)cc1` (centres unmarked) [Example 56A, N2-(4-(4-chloro-1H-imidazol-1-yl)-3-methoxyphenyl)-N4-ethyl-8-(4-fluorophenyl)-7,8-dihydro-5H-pyrano[4,3-d]pyrimidine-2,4-diamine], the IC50 is 0.0015 to 0.0099 µM.

Regarding `[2H]C([2H])([2H])Nc1nc(Nc2ccc(-n3cnc(Cl)c3)c(OC)c2)nc2c1CCC2c1ccccc1` (single isomer, unassigned) [Example 176B, N^2-(4-(4-Chloro-1H-imidazol-1-yl)-3-methoxyphenyl)-N^4-trideuteromethyl-7-phenyl-6,7-dihydro-5H-cyclopenta[d]pyrimidine-2,4-diamine], the IC50 lay in the range of 0.0015 to 0.0099 µM.

For the compound `COc1cc(Nc2nc(N[C@@H](C)C3CC3)c3c(n2)C(c2ccc(F)cc2)CC3)ccc1-n1cnc(Cl)c1` (single isomer, unassigned) [Example 50B], the IC50 is 0.01 to 0.1 µM. Consider `COc1cc(Nc2nc3c(c(N4CCC4)n2)CCC3c2ccccc2)ccc1-n1cnc(Cl)c1` (single isomer, unassigned) [Example 6A, 4-(azetidin-1-yl)-N-(4-(4-chloro-1H-imidazol-1-yl)-3-methoxyphenyl)-7-phenyl-6,7-dihydro-5H-cyclopenta[d]pyrimidin-2-amine], for which the IC50 was 0.0015 to 0.0099 µM. Turning to `COc1cc(Nc2nc3c(c(N4CC(F)(F)C4)n2)COCC3c2ccc(F)cc2)ccc1-n1cnc(Cl)c1` (centres unmarked) [Example 63A, N-(4-(4-chloro-1H-imidazol-1-yl)-3-methoxyphenyl)-4-(3,3-difluoroazetidin-1-yl)-8-(4-fluorophenyl)-7,8-dihydro-5H-pyrano[4,3-d]pyrimidin-2-amine], the IC50 fell in the range of 0.01 to 0.1 µM.

These data come from patent US8637525B2, “Compounds for the reduction of beta-amyloid production” (Bristol-Myers Squibb Company, priority 2009, dated 2014).
